Experimental data reported in ChEMBL document CHEMBL1146253, “A distal methyl substituent attenuates mitochondrial protein synthesis inhibition in oxazolidinone antibacterials” (Bioorg Med Chem Lett, 2007).
Values after ≈ are worked out from the molar mass of the structure shown.

The compounds below were run on Streptococcus pneumoniae (assay: Antibacterial activity against Streptococcus pneumoniae by broth microdilution method).
Type: functional
`CC(=O)NC[C@H]1CN(c2cc(F)c(N3CC(O)C3)c(F)c2)C(=O)O1` showed an MIC90 of 1 µg/mL (≈ 2.93 µM).
Work on `CC(=O)NC[C@H]1CN(c2cc(F)c(N3CC(C)(O)C3)c(F)c2)C(=O)O1` yielded an MIC90 of 1 µg/mL (≈ 2.81 µM).
In the case of `CCC1(O)CN(c2c(F)cc(N3C[C@H](CNC(C)=O)OC3=O)cc2F)C1`, the MIC90 is reported as 2 µg/mL (≈ 5.41 µM).
`COC1CN(c2c(F)cc(N3C[C@H](CNC(C)=O)OC3=O)cc2F)C1` gave an MIC90 of 1 µg/mL (≈ 2.81 µM).
`COC1(C)CN(c2c(F)cc(N3C[C@H](CNC(C)=O)OC3=O)cc2F)C1` gave an MIC90 of 1 µg/mL (≈ 2.71 µM).
Work on `CC(=O)NC[C@H]1CN(c2cc(F)c(N3CC(C)(F)C3)c(F)c2)C(=O)O1` yielded an MIC90 of 1 µg/mL (≈ 2.8 µM).
`CC(=O)NC[C@H]1CN(c2cc(F)c(N3CCC(C)(O)CC3)c(F)c2)C(=O)O1` was tested, and the MIC90 was 1 µg/mL (≈ 2.61 µM).
Work on `CC(=O)NC[C@H]1CN(c2cc(F)c(N3CCC(C)(CC#N)CC3)c(F)c2)C(=O)O1` yielded an MIC90 of 1 µg/mL (≈ 2.46 µM).
In the case of `CCC1(O)CCN(c2c(F)cc(N3C[C@H](CNC(C)=O)OC3=O)cc2F)CC1`, the MIC90 is reported as 1 µg/mL (≈ 2.52 µM).
With `CC(=O)NC[C@H]1CN(c2cc(F)c(N3CCC(CC#N)CC3)c(F)c2)C(=O)O1` the MIC90 was 1 µg/mL (≈ 2.55 µM).
With `CC(=O)NC[C@H]1CN(c2cc(F)c(N3CC(O)(C(F)(F)F)C3)c(F)c2)C(=O)O1` the MIC90 was 2 µg/mL (≈ 4.89 µM).
Compound `CC(=O)NC[C@H]1CN(c2cc(F)c(N3CC(F)C3)c(F)c2)C(=O)O1` has an MIC90 of 1 µg/mL (≈ 2.91 µM).
For `CC(=O)NC[C@H]1CN(c2cc(F)c(N3CCC(O)CC3)c(F)c2)C(=O)O1`, the MIC90 was 1 µg/mL (≈ 2.71 µM).
Compound `CC(=O)NC[C@H]1CN(c2ccc(N3CCOCC3)c(F)c2)C(=O)O1` [LINEZOLID] has an MIC90 of 1 µg/mL (≈ 2.96 µM).

These compounds were tested on Enterococcus faecalis (assay: Antibacterial activity against Enterococcus faecalis by broth microdilution method).
Type: functional
For `CC(=O)NC[C@H]1CN(c2cc(F)c(N3CC(O)C3)c(F)c2)C(=O)O1`, the MIC90 was 2 µg/mL (≈ 5.86 µM).
`CC(=O)NC[C@H]1CN(c2cc(F)c(N3CC(C)(O)C3)c(F)c2)C(=O)O1` was tested, and the MIC90 was 4 µg/mL (≈ 11.3 µM).
In the case of `CCC1(O)CN(c2c(F)cc(N3C[C@H](CNC(C)=O)OC3=O)cc2F)C1`, the MIC90 is reported as 2 µg/mL (≈ 5.41 µM).
With `COC1CN(c2c(F)cc(N3C[C@H](CNC(C)=O)OC3=O)cc2F)C1` the MIC90 was 2 µg/mL (≈ 5.63 µM).
`COC1(C)CN(c2c(F)cc(N3C[C@H](CNC(C)=O)OC3=O)cc2F)C1` showed an MIC90 of 4 µg/mL (≈ 10.8 µM).
`CC(=O)NC[C@H]1CN(c2cc(F)c(N3CC(C)(F)C3)c(F)c2)C(=O)O1` was tested, and the MIC90 was 2 µg/mL (≈ 5.6 µM).
Work on `CC(=O)NC[C@H]1CN(c2cc(F)c(N3CCC(C)(O)CC3)c(F)c2)C(=O)O1` yielded an MIC90 of 2 µg/mL (≈ 5.22 µM).
`CC(=O)NC[C@H]1CN(c2cc(F)c(N3CCC(C)(CC#N)CC3)c(F)c2)C(=O)O1` gave an MIC90 of 1 µg/mL (≈ 2.46 µM).
For `CCC1(O)CCN(c2c(F)cc(N3C[C@H](CNC(C)=O)OC3=O)cc2F)CC1`, the MIC90 was 2 µg/mL (≈ 5.03 µM).
For `CC(=O)NC[C@H]1CN(c2cc(F)c(N3CCC(CC#N)CC3)c(F)c2)C(=O)O1`, the MIC90 was 1 µg/mL (≈ 2.55 µM).
`CC(=O)NC[C@H]1CN(c2cc(F)c(N3CC(O)(C(F)(F)F)C3)c(F)c2)C(=O)O1` was tested, and the MIC90 was 2 µg/mL (≈ 4.89 µM).
With `CC(=O)NC[C@H]1CN(c2cc(F)c(N3CC(F)C3)c(F)c2)C(=O)O1` the MIC90 was 2 µg/mL (≈ 5.83 µM).
In the case of `CC(=O)NC[C@H]1CN(c2cc(F)c(N3CCC(O)CC3)c(F)c2)C(=O)O1`, the MIC90 is reported as 2 µg/mL (≈ 5.41 µM).
In the case of `CC(=O)NC[C@H]1CN(c2ccc(N3CCOCC3)c(F)c2)C(=O)O1` [LINEZOLID], the MIC90 is reported as 4 µg/mL (≈ 11.9 µM).

What follows are compounds tested on Staphylococcus aureus (assay: Antibacterial activity against Staphylococcus aureus by broth microdilution method).
Type: functional
Work on `CC(=O)NC[C@H]1CN(c2cc(F)c(N3CC(O)C3)c(F)c2)C(=O)O1` yielded an MIC90 of 2 µg/mL (≈ 5.86 µM).
In the case of `CC(=O)NC[C@H]1CN(c2cc(F)c(N3CC(C)(O)C3)c(F)c2)C(=O)O1`, the MIC90 is reported as 4 µg/mL (≈ 11.3 µM).
Work on `CCC1(O)CN(c2c(F)cc(N3C[C@H](CNC(C)=O)OC3=O)cc2F)C1` yielded an MIC90 of 4 µg/mL (≈ 10.8 µM).
In the case of `COC1CN(c2c(F)cc(N3C[C@H](CNC(C)=O)OC3=O)cc2F)C1`, the MIC90 is reported as 2 µg/mL (≈ 5.63 µM).
With `COC1(C)CN(c2c(F)cc(N3C[C@H](CNC(C)=O)OC3=O)cc2F)C1` the MIC90 was 4 µg/mL (≈ 10.8 µM).
In the case of `CC(=O)NC[C@H]1CN(c2cc(F)c(N3CC(C)(F)C3)c(F)c2)C(=O)O1`, the MIC90 is reported as 4 µg/mL (≈ 11.2 µM).
In the case of `CC(=O)NC[C@H]1CN(c2cc(F)c(N3CCC(C)(O)CC3)c(F)c2)C(=O)O1`, the MIC90 is reported as 4 µg/mL (≈ 10.4 µM).
Work on `CC(=O)NC[C@H]1CN(c2cc(F)c(N3CCC(C)(CC#N)CC3)c(F)c2)C(=O)O1` yielded an MIC90 of 2 µg/mL (≈ 4.92 µM).
`CCC1(O)CCN(c2c(F)cc(N3C[C@H](CNC(C)=O)OC3=O)cc2F)CC1` was tested, and the MIC90 was 4 µg/mL (≈ 10.1 µM).
`CC(=O)NC[C@H]1CN(c2cc(F)c(N3CCC(CC#N)CC3)c(F)c2)C(=O)O1` showed an MIC90 of 2 µg/mL (≈ 5.1 µM).
For `CC(=O)NC[C@H]1CN(c2cc(F)c(N3CC(O)(C(F)(F)F)C3)c(F)c2)C(=O)O1`, the MIC90 was 4 µg/mL (≈ 9.77 µM).
In the case of `CC(=O)NC[C@H]1CN(c2cc(F)c(N3CC(F)C3)c(F)c2)C(=O)O1`, the MIC90 is reported as 2 µg/mL (≈ 5.83 µM).
`CC(=O)NC[C@H]1CN(c2cc(F)c(N3CCC(O)CC3)c(F)c2)C(=O)O1` was tested, and the MIC90 was 2 µg/mL (≈ 5.41 µM).
`CC(=O)NC[C@H]1CN(c2ccc(N3CCOCC3)c(F)c2)C(=O)O1` [LINEZOLID] showed an MIC90 of 4 µg/mL (≈ 11.9 µM).

What follows are compounds tested on Escherichia coli (assay: Intrinsic binding affinity to Escherichia coli ribosmes by TnT assay).
Type: functional
`CC(=O)NC[C@H]1CN(c2cc(F)c(N3CC(O)C3)c(F)c2)C(=O)O1` showed an IC50 of 1.9 µM.
Compound `CC(=O)NC[C@H]1CN(c2cc(F)c(N3CC(C)(O)C3)c(F)c2)C(=O)O1` has an IC50 of 3.4 µM.
Compound `CCC1(O)CN(c2c(F)cc(N3C[C@H](CNC(C)=O)OC3=O)cc2F)C1` has an IC50 of 2.7 µM.
Compound `COC1CN(c2c(F)cc(N3C[C@H](CNC(C)=O)OC3=O)cc2F)C1` has an IC50 of 2.6 µM.
In the case of `COC1(C)CN(c2c(F)cc(N3C[C@H](CNC(C)=O)OC3=O)cc2F)C1`, the IC50 is reported as 3.7 µM.
`CC(=O)NC[C@H]1CN(c2cc(F)c(N3CC(C)(F)C3)c(F)c2)C(=O)O1` was tested, and the IC50 was 2.3 µM.
`CC(=O)NC[C@H]1CN(c2cc(F)c(N3CCC(C)(O)CC3)c(F)c2)C(=O)O1` showed an IC50 of 2.1 µM.
`CCC1(O)CCN(c2c(F)cc(N3C[C@H](CNC(C)=O)OC3=O)cc2F)CC1` showed an IC50 of 2.1 µM.
`CC(=O)NC[C@H]1CN(c2cc(F)c(N3CCC(CC#N)CC3)c(F)c2)C(=O)O1` was tested, and the IC50 was 1.6 µM.
With `CC(=O)NC[C@H]1CN(c2cc(F)c(N3CC(O)(C(F)(F)F)C3)c(F)c2)C(=O)O1` the IC50 was 2.4 µM.
`CC(=O)NC[C@H]1CN(c2cc(F)c(N3CC(F)C3)c(F)c2)C(=O)O1` showed an IC50 of 1.4 µM.
`CC(=O)NC[C@H]1CN(c2cc(F)c(N3CCC(O)CC3)c(F)c2)C(=O)O1` showed an IC50 of 1.7 µM.
